For test [1], the target named is T1, Metabotropic glutamate receptor 2 (Rattus norvegicus, UniProt P31421). The experiment in a line: Displacement of [3H]LY354740 from rat recombinant mGluR2 expressed in CHO cells. Type of test: cell-based. (Displacement assays read how much labelled ligand stays bound in the presence of the test substance.)
The target of test [2] is T1, Metabotropic glutamate receptor 2. The experiment in a line: Antagonist activity at rat mGluR2 assessed as effect on (1S,3R)-ACPD-induced inhibition of forskolin-stimulated cAMP production. The test is classed as functional. In general terms: Cyclic AMP is a second messenger, typically raised through Gs and lowered through Gi signalling.
Test [3] in a line: Binding affinity to NMDA.
Test [4] deals with Metabotropic glutamate receptor 3 (Rattus norvegicus) (UniProt P31422). Nature of the test: Antagonist activity at rat mGluR3 transiently transfected in CHO cells expressing GIRKs assessed as inhibition of glutamate-induced reversible inward K+ current. Type of test: functional, cell-based.
Sequence of Metabotropic glutamate receptor 3 (Rattus norvegicus) (P31422 23-879 limits assumed): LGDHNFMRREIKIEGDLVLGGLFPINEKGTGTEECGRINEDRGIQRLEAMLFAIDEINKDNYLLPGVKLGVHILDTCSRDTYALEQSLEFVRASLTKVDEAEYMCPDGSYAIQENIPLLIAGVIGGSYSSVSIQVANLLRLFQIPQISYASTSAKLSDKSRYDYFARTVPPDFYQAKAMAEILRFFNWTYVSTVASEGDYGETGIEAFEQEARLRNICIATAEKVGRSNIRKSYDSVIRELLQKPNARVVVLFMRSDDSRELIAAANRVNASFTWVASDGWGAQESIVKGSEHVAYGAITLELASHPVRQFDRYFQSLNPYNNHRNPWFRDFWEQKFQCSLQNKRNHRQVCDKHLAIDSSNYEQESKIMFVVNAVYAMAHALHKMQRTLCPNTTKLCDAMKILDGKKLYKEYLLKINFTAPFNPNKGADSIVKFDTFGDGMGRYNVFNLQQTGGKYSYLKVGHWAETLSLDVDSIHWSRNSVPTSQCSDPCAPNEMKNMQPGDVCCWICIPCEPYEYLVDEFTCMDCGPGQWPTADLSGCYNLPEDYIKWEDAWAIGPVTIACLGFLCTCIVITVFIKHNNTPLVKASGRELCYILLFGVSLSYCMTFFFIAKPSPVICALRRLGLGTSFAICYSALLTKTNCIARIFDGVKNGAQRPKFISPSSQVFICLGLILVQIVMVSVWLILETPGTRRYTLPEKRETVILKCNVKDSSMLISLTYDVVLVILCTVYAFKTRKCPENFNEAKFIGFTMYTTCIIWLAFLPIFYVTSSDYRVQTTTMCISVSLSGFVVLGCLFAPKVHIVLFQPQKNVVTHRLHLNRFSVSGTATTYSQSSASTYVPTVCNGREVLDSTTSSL
The target of test [5] is Metabotropic glutamate receptor 8 (Rattus norvegicus, UniProt P70579). Nature of the test: (§1) Displacement of [3H]-L-AP4 from rat mGluR8.
Sequence of Metabotropic glutamate receptor 8 (P70579 whole entry): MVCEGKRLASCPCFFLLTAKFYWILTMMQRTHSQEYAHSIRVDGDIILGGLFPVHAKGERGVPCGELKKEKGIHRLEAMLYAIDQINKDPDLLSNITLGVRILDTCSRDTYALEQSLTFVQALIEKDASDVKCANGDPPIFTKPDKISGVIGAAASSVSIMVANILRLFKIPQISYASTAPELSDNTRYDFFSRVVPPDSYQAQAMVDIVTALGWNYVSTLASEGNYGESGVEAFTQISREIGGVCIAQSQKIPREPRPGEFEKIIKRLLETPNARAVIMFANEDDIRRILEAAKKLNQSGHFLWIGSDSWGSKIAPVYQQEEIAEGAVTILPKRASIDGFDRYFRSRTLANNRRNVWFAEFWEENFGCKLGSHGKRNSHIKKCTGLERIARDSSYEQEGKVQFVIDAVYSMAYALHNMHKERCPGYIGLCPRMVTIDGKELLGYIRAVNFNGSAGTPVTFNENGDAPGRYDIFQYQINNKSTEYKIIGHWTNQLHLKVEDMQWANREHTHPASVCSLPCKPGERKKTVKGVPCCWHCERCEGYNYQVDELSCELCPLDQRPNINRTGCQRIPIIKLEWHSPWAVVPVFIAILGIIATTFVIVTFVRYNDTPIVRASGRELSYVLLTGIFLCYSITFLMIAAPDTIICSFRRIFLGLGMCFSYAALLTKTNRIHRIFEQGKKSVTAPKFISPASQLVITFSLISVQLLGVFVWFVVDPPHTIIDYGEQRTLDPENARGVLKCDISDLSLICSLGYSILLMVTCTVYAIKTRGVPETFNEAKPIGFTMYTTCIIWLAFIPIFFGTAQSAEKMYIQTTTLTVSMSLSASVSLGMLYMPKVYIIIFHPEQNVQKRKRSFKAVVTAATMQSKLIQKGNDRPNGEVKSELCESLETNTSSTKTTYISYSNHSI
The target in test [6] is Metabotropic glutamate receptor 2 (Rattus norvegicus) (UniProt P31421). Nature of the test: Antagonist activity at rat mGluR2 transiently transfected in CHO cells expressing GIRKs assessed as inhibition of glutamate-induced reversible inward K+ current. Type of test: functional, cell-based.
Sequence of Metabotropic glutamate receptor 2 (Rattus norvegicus) (P31421 19-872 limits assumed): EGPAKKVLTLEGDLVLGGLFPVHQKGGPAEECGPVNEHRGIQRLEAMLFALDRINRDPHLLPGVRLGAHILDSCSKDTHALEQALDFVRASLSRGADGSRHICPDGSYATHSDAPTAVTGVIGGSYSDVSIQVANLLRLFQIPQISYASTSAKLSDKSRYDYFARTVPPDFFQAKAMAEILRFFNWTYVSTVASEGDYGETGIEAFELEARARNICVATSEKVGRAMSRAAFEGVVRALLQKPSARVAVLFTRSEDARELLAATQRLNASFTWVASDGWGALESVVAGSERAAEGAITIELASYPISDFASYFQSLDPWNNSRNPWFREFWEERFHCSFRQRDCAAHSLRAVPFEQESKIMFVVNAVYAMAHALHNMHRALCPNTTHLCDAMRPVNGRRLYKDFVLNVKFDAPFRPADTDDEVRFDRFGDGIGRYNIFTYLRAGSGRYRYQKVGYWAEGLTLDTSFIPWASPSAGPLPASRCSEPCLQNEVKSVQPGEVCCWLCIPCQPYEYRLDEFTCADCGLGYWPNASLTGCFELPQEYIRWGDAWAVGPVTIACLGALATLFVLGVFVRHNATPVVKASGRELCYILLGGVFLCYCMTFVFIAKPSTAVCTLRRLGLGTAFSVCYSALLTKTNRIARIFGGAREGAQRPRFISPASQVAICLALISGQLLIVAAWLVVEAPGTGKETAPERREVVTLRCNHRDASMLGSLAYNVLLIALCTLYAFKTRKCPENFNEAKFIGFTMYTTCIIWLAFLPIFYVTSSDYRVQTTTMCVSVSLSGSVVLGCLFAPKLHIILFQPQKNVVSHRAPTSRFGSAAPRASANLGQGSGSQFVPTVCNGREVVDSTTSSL
The nature of test [7]: Binding affinity to GABAA.
The species named for test [8] is Rattus norvegicus. The experiment in a line: Antagonist activity at mGluR group 2 in rat hippocampus assessed as reversal of LY-354740-mediated inhibition of fEPSPs in dentate gyrus. Type of test: functional, tissue-based.
Test [9] is filed under the species Rattus norvegicus. Nature of the test: Antagonist activity at mGluR group 2 in rat hippocampus assessed as blockade of LY-354740-mediated inhibition of fEPSPs after 3 hrs. The test is classed as functional, tissue-based.
Test [10] deals with Metabotropic glutamate receptor 8 (Rattus norvegicus) (UniProt P70579). The description is as §1.
Sequence of Metabotropic glutamate receptor 8 (Rattus norvegicus) (P70579 whole entry): as the sequence (P70579 whole entry) above
In test [11] the target is T1, Metabotropic glutamate receptor 2. The experiment in a line: Displacement of [3H]LY354740 from rat mGluR2.

Each structure is given as a SMILES string. Activity calls are given as the source filed them. The rule behind the calls is not given here.

T1 sequence (P31421 whole entry): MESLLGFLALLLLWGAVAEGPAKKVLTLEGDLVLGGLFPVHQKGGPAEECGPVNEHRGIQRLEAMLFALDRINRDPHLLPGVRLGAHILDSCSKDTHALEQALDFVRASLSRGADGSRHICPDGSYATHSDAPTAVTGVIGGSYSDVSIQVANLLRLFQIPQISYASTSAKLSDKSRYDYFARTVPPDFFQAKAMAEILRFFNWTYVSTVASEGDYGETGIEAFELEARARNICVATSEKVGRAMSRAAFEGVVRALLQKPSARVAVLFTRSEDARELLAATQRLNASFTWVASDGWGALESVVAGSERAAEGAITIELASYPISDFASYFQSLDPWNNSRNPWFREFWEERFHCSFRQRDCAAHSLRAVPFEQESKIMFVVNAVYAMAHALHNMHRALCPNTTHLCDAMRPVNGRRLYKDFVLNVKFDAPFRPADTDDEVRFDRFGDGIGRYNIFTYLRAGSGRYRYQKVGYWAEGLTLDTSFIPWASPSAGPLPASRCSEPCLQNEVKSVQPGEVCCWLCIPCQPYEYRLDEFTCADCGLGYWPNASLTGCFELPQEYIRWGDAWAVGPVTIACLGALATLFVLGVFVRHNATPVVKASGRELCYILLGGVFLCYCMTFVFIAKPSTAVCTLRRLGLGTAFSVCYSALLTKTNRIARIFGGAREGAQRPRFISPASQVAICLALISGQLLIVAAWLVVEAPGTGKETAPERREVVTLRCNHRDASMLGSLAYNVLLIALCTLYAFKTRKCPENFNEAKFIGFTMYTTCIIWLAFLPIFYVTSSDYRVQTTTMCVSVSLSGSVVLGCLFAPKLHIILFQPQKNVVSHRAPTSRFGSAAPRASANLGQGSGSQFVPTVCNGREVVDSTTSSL

As for `O=C1CC(c2cccc(-n3ccnc3)c2)=Nc2ccc(C#Cc3ccccc3)cc2N1`, the IC50 was 13 nM in test [1] and 10 nM in test [2].
With `CN(CCO)c1cc2c(cc1C#Cc1ccc(F)cc1)NC(=O)CC(c1cccc(-n3ccnc3)c1)=N2`, the IC50 in test [1] was 140 nM.
Regarding `CN(C)c1cc2c(cc1C#Cc1ccccc1)NC(=O)CC(c1cccc(-n3ccnn3)c1)=N2`, in test [1], the IC50 amounted to 36 nM.
Turning to `O=C1CC(c2cccc(-n3ccnn3)c2)=Nc2cc(O)c(C#Cc3ccc(F)cc3)cc2N1`, the result in test [3] and in test [7] was inactive. Moreover, the outcome in test [4] and in [6] was Active. For the same compound, the IC50 turned out to be 5000 nM in test [5], 20 nM in test [1] and 17 nM in test [2].
Regarding `Cc1cn(-c2cccc(C3=Nc4ccc(C#Cc5ccccc5)cc4NC(=O)C3)c2)c(C)n1`, the IC50 in test [1] was found to be 170 nM.
For the compound `O=C1CC(c2cccc(-n3ccnc3)c2)=Nc2ccc(C#Cc3ccc(F)cc3)cc2N1`, the IC50 in test [1] and in test [2] was 9 nM each time.
Turning to `N#CCOc1cc2c(cc1C#Cc1ccccc1)NC(=O)CC(c1cccc(-n3ccnc3)c1)=N2`, the IC50 in test [1] was found to be 18 nM; in test [2], 13 nM.
Take `O=C1CC(c2cccc(-n3nncc3CO)c2)=Nc2cc(O)c(C#Cc3ccc(F)cc3)cc2N1`: the IC50 in test [1] was found to be 378 nM.
Take `O=C1CC(c2cccc(-n3cnnn3)c2)=Nc2ccc(C#Cc3ccc(F)cc3)cc2N1`: the IC50 in test [1] was found to be 72 nM.
Still for that read-out and setting: then `Cn1ccnc1-c1cccc(C2=Nc3ccc(C#Cc4ccccc4)cc3NC(=O)C2)c1`, with 730 nM.
Turning to `O=C1CC(c2cccc(-n3ccnc3)c2)=Nc2ccc(C#Cc3ccccc3F)cc2N1`, the IC50 in [1] is 20 nM; in test [2] it was 16 nM.
Take `N#Cc1cccc(C2=Nc3ccc(C#Cc4ccccc4)cc3NC(=O)C2)c1`: the IC50 in test [2] turned out to be 17 nM.
With `Cc1cn(-c2cccc(C3=Nc4ccc(C#Cc5ccc(F)cc5)cc4NC(=O)C3)c2)cn1`, in test [1], the IC50 came out at 98 nM.
For `O=C1CC(c2cccc(-n3ccnc3)c2)=Nc2cc(O)c(C#Cc3ccc(F)cc3)cc2N1`, the result in test [3], in [10] and in test [7] was inactive. For the same compound, the outcome (in the test filed under Rattus norvegicus [8]; in the test listed under Rattus norvegicus [9]; in [4]; in test [6]) was Active. For the same compound, the figures for the IC50 in test [1] and in test [2] were 26 nM and 11 nM, respectively.
In test [11], `Cc1ccc2c(c1)NC(=O)CC(c1ccccc1)=N2` had an IC50 of 6400 nM.
Consider `COCCOc1cc2c(cc1C#Cc1ccccc1)NC(=O)CC(c1cccc(-n3ccnc3)c1)=N2`, for which the IC50 in [1] is 23 nM; in test [2], 15 nM.
As for `O=C1CC(c2cccc(-n3ccnn3)c2)=Nc2ccc(C#Cc3ccc(F)cc3)cc2N1`, the values for the IC50 in [1] and in [2] were 6 nM and 12 nM, respectively.
As to `O=C1CC(c2cccc(-n3ccnc3)c2)=Nc2cc(OCCO)c(C#Cc3ccc(F)cc3)cc2N1`, the IC50 in [1] stood at 46 nM.
In the case of `O=C1CC(c2cccc(-n3cncn3)c2)=Nc2ccc(C#Cc3ccc(F)cc3)cc2N1`, the half-inhibitory concentration (IC50) in test [1] was 98 nM.
`O=C1CC(c2cccc(-n3ccnc3)c2)=Nc2cc(OCCO)c(C#Cc3ccccc3)cc2N1`: the IC50 in test [1] was found to be 64 nM.

The term IC50 denotes the concentration that inhibits the measured activity by half.

(Values after ChEMBL document CHEMBL1142351, “Synthesis and characterization of 8-ethynyl-1,3-dihydro-benzo[b][1,4]diazepin-2-one derivatives: part 2. New potent non-competitive metabotropic glutamate receptor 2/3 antagonists” (Bioorg Med Chem Lett, 2008).)
